The values below come from patent publication US20170143647A1, “INTESTINAL FLORA IMPROVING COMPOSITION CONTAINING ASTAXANTHIN AND ITS USE” (THE DOSHISHA, priority 2013, published 2017).

Data set [1] can be described thus: Change in body weight of mice fed ordinary or high-fat diet with or without astaxanthin. Type of data set: in vivo, ICR mice. The note with it: 0.02% astaxanthin in ordinary or high-fat diet, weight measured once a week. The method, then:
(§1) The test substance (astaxanthin) was added to an ordinary diet (“Labo MR Stock” manufactured by Nosan Corporation (Nishi-ku, Yokohama)) and a high-fat diet (“HFD-60” Oriental Yeast Co., Ltd. (Itabashi-ku, Tokyo)) so that the content thereof was 0.02%.
(§2) A commercially-available product “AstaReal Oil 50F” (manufactured by Fuji Chemical Industries Co., Ltd.) was used as astaxanthin.
(§3) Twenty 4-week-old ICR mice were respectively kept in different cages, and habituated for 1 week.
(§4) After completion of habituation, the weight of each mouse was measured, and the mice were divided into an ordinary diet group (group C), an ordinary diet+astaxanthin group (group CA), a high-fat diet group (group H), and a high-fat diet+astaxanthin group (group HA) (five mice per group).
The diet was fed to each group from Day 1, and the weight of each mouse was measured once a week.
The ordinary diet was fed once a week, and the high-fat diet was fed every other day (the high-fat diet was returned to room temperature on the day before the feeding).
The mean value of each group was analyzed by Tukey's multiple comparison test.

For data set [2], the system named is Lactobacillus group (lactic acid bacteria). Kind of data set: Real-time PCR of fecal DNA, Lactobacillus group. Type of data set: in vivo, ICR mice. The method, then:
(§5) A change in intestinal flora when a high-fat diet was fed to mice, and the effect of astaxanthin on intestinal flora were determined using a real-time PCR method.
as §1, §2, §3
(§6) After completion of habituation, the weight of each mouse was measured, and the mice were divided into an ordinary diet group (group C), an ordinary diet+astaxanthin group (group CA), a high-fat diet group (group H), and a high-fat diet+astaxanthin group (group HA) (five mice per group). […]
(§7) The DNA solution was 100-fold diluted (Lactobacillus, Streptococcus, Clostridium coccoides, and Clostridium leptum), and the final concentration was adjusted to […] (other targets). […] The primer sequence was analyzed using the method of Matsuki et al. or Endo et al. […]
(§8) Regarding a comparison as to the presence or absence of astaxanthin, the bacterial count change ratio was analyzed by Mann-Whitney's U test (one-sided test).

For data set [3], the system named is Streptococcus group (lactic acid bacteria). Description: Real-time PCR of fecal DNA, Streptococcus group. Type of data set: in vivo, ICR mice. As to the method: as §5, §1, §2, §3, §6, §7, §8
In general terms: Real-time PCR tracks product formation cycle by cycle.

Data set [4] relates to Clostridium coccoides group. Description: Real-time PCR of fecal DNA, Clostridium coccoides group. Type of data set: in vivo, ICR mice. The method, then: as §5, §1, §2, §3, §6, §7, §8
A further data set has as its system Clostridium leptum group. Description: Real-time PCR of fecal DNA, Clostridium leptum group. In kind it is in vivo, ICR mice. Particulars: group HA vs group H. The method, then: as §5, §1, §2, §3, §4
(§9) The feces of the mice were collected over 24 hours on the final day of habituation (Day 0). […]
as §7
(§10) The mean value of each group was analyzed by Tukey's multiple comparison test. […]

Data set [5] relates to bacteria that belong to the genus Bacteroides. Description: Real-time PCR of fecal DNA, genus Bacteroides. Particulars: group HA (high-fat diet + astaxanthin), Day 14, FIG. 9. In kind it is in vivo, ICR mice. The method, then:
as §5, §1, §2, §3, §4, §9, §7, §10

The next data set relates to intestinal flora. Kind of data set: Effect of astaxanthin on intestinal flora of mice fed a high-fat diet (overall). The note with it: intake of astaxanthin, high-fat diet fed to a mouse. In kind it is in vivo. The method, then: A change in intestinal flora when a high-fat diet was fed to mice, and the effect of astaxanthin on intestinal flora were determined using a real-time PCR method. The test substance (astaxanthin) was added to an ordinary diet (“Labo MR Stock” manufactured by Nosan Corporation (Nishi-ku, Yokohama)) and a high-fat diet (“HFD-60” Oriental Yeast Co., Ltd. (Itabashi-ku, Tokyo)) so that the content thereof was 0.02%. A commercially-available product “[…] Oil […]” (manufactured by Fuji Chemical Industries Co., Ltd.) was used as astaxanthin. Twenty 4-week-old ICR mice were respectively kept in different cages, and habituated for 1 week. After completion of habituation, the weight of each mouse was measured, and the mice were divided into an ordinary diet group (group C), an ordinary diet+astaxanthin group (group CA), a high-fat diet group (group H), and a high-fat diet+astaxanthin group (group HA) (five mice per group). The DNA solution was 100-fold diluted (Lactobacillus, Streptococcus, Clostridium coccoides, and Clostridium leptum), and the final concentration was adjusted to […] (other targets). […] The primer sequence was analyzed using the method of Matsuki et al. or Endo et al. The real-time PCR assay was performed on Bacteroides, Bifidobacterium (bifidobacteria), Prevotella, Lactobacillus, Streptococcus, Clostridium coccoides, and Clostridium leptum.

For data set [6] the following is noted: taken orally; cited from earlier work.
For data set [7] the following is noted: eight-week treatment; cited from earlier work.

Entries after “also recorded” stand apart in the source; their conditions may differ.

`CC1=C(/C=C/C(C)=C/C=C/C(C)=C/C=C/C=C(C)/C=C/C=C(C)/C=C/C2=C(C)C(=O)C(O)CC2(C)C)C(C)(C)CC(O)C1=O` (stereo not drawn) [astaxanthin, 3,3′-dihydroxy-β,β-carotene-4,4′-dione]: the “change in body weight, groups fed astaxanthin (CA, HA) vs groups not fed astaxanthin (C, H)” value in [1] is “No significant difference”. In data set [2] (addition of 0.02% astaxanthin to diet, p=0.031), the “rate of increase in the bacterial count of the Lactobacillus group” value is reported as “increased”. Further, the “bacterial count of the Lactobacillus group” value in [2] (group C vs CA and group H vs HA, FIG. 4) is “increased”. For the same compound, the “rate of increase in bacterial count of the Streptococcus group, between the high-fat diet groups” value in data set [3] (group H vs HA, p=0.044) is “significant difference”. Besides, in data set [3] (group HA (high-fat diet + astaxanthin), Day 28), the “bacterial count of the Streptococcus group” value was “comparable to those of the ordinary diet group; also recorded: increased”. Moreover, the “growth of the Clostridium coccoides group” value in [4] (group H vs HA, Day 14 and Day 28, FIG. 7) was “suppressed the growth”. Moreover, in data set [4] (high-fat diet, addition of astaxanthin, p=0.029), the “rate of increase in the bacterial count of the Clostridium coccoides group” value is “decreased”. Besides, the “bacterial count of the Clostridium leptum group” value with Clostridium leptum group (Day 14, p<0.001) is listed as “temporary increase”; with Clostridium leptum group (Day 28), “no significant difference”. In addition, the “bacterial count of bacteria that belong to the genus Bacteroides” value in data set [5] is reported as “did not show such a temporary increase; also recorded: suppressed a temporary increase; also recorded: did not show a significant increase”. Moreover, the “effect on intestinal flora” value in the data set with intestinal flora is given as “improves intestinal flora; also recorded: controls the disorder of intestinal flora”. Moreover, the “astaxanthin absorbed in the small intestine” value in data set [6] is “about 5%”. The “efficacy reported in Non-Patent Literature 1” value in [7] is “enhances the antioxidant potential, decreases blood pressure, and improves constipation and a climacteric complaint”.
